Columns and labels:
[1] = biological target: T1, hTRPML1L15/16A, L577/578A (Homo sapiens, UniProt Q9GZU1, L15A/L16A); assay: Whole-cell patch-clamp, tetracycline-inducible HEK293 hTRPML1L15/16A, L577/578A; type: cell-based; conditions: 30 µM ML-SA1, pH 4.6; read-out: TRPML1 IC50, whole-cell patch-clamp
T1 construct: host or cells: HEK293, FLP-in-Tet-On, tetracycline-induced
Method: (§1) For whole-cell patch-clamp experiments tetracycline-inducible hTRPML1L15/16A, L577/578A, hTRPML2 and TRPML3 HEK293 cell lines were used, generated by ICAGEN Inc. using the FLP-in-Tet-On system. Experiments were performed as described previously[20],[42]. In brief, cells were cultured on coverslips (Fisherbrand, Fisher Scientific) in complete DMEM medium with 10% FBS (Thermo Fisher). HEK293 cells expressing the desired channel protein were patch-clamped after overnight induction with tetracycline (1 µg/mL). […] The pipette solution contained (mM) 122 Cs‐methanosulfonate, 4 NaCl, 10 EGTA, 2 Na-ATP, 2 MgCl2 and 20 HEPES, pH 7.2 (with CsOH). The standard bath solution contained (mM) 153 NaCl, 5 KCl, 2 CaCl2, 1 MgCl2, 20 HEPES and 10 Glucose (pH 7.4 with NaOH). The low pH bath solution contained (mM) 150 Na-Gluconate, 5 KCl, 2 CaCl2, 1 MgCl2, 10 glucose, 10 HEPES and 10 MES (pH 4.6). Whole‐cell currents were recorded using a Multiclamp 700B amplifier (Molecular Devices) with low‐pass filtering at 3 kHz. The currents were digitized at a sampling frequency of 10 kHz using BNC-2110 and PCI-6221 with NI-DAQmx (National Instruments) and stored directly to a hard drive. Current recording was done with WinWCP5.2.7 (University of Strathclyde, UK) software, and analysis was done with the help of a customized Igor pro program (WaveMetrics).

hTRPML3 = biological target: T2, hTRPML3 (Homo sapiens, UniProt Q8TDD5); assay: Whole-cell patch-clamp, tetracycline-inducible HEK293 hTRPML3; type: cell-based; conditions: 30 µM ML-SA1, pH 7.4
T2 construct: host or cells: HEK293, FLP-in-Tet-On, tetracycline-induced
T2 sequence (Q8TDD5 1-553): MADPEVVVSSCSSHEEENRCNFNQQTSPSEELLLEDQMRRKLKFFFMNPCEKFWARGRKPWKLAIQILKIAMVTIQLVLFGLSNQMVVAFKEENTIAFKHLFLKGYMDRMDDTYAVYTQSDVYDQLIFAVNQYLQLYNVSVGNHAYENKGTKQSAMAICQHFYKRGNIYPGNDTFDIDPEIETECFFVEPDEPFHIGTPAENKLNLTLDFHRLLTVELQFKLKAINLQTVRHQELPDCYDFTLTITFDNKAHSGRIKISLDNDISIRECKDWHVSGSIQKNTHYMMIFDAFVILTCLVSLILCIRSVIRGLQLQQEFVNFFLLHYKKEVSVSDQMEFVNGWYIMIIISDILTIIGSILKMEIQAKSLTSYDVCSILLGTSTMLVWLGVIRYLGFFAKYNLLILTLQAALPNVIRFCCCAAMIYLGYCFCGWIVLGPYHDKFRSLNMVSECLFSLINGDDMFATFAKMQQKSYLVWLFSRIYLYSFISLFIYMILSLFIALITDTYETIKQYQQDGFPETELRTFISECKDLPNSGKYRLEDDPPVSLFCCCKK
Method: as §1

hTRPML1 WT = biological target: T3, hTRPML1 WT (Homo sapiens, UniProt Q9GZU1); assay: Endolysosomal patch-clamp, vacuolin-enlarged endo-lysosomes from hTRPML1 WT expressing HEK293 cells; type: cell-based; conditions: activation with ML-SA1 (10 µM) or PI(3,5)P2 (1 µM), luminal pH 4.6
T3 construct: expressed in transfected cells; host or cells: HEK293
Method: For whole-LE/LY manual patch-clamp recordings, cells were treated with 1 μM vacuolin-1 (> 2 h) at 37 °C and 5% CO2 and experiments performed as described previously[19],[25]. Compound was washed out before patch-clamp experimentation. Currents were recorded using an EPC-10 patch-clamp amplifier (HEKA, Lambrecht, Germany) and PatchMaster acquisition software (https://www.heka.com/). Data were digitized at 40 kHz and filtered at 2.8 kHz. Fast and slow capacitive transients were cancelled by the compensation circuit of the EPC-10 amplifier. All recordings were obtained at room temperature and were analyzed using PatchMaster acquisition software (https://www.heka.com/) and OriginPro 6.1 (https://www.originlab.com/). […] For all experiments, salt-agar bridges were used to connect the reference Ag–AgCl wire to the bath solution to minimize voltage offsets. Liquid junction potential was corrected. For the application of the small molecule inhibitors/flavonoids, cytoplasmic solution was completely exchanged by cytoplasmic solution containing compound. The current amplitudes at − 100 mV were extracted from individual ramp current recordings. Unless otherwise stated, cytoplasmic solution contained 140 mM K-MSA, 5 mM KOH, 4 mM NaCl, 0.39 mM CaCl2, 1 mM EGTA and 10 mM HEPES (pH was adjusted with KOH to 7.2). […]

TFEB = TFEB shift / nuclear translocation upon nutrient starvation; type: cell-based, human; conditions: EDME 1 µM, Hbss
Method: 5 × 10^4 wild-type human fibroblasts were seeded in a 12-well plate and treated overnight with DMSO or different TRPML1 inhibitors (EDME, PRU-10, PRU-12). The day after, cells were treated for 3 h in full media (Fed) or HBSS supplemented with 10 mM HEPES (nutrient starved) in presence of DMSO or different TRPML1 inhibitors (EDME, PRU-10, PRU-12). For autophagic flux experiments, cells were co-treated with 100 nM of bafilomycin A1 (Sigma).
Total cell lysates were prepared using TRIS HCl 10 mM pH 8.0 and 0.2% SDS supplemented with protein and phosphatase inhibitors (Sigma). Protein concentration was determined using the Bradford method. After SDS–polyacrylamide gel electrophoresis (PAGE) and immunoblotting, the protein recognized by the specific antibody was visualized by chemiluminescence methods (Luminata Crescendo Western HRP substrate, Millipore) using HRP-conjugated anti-rabbit or anti-mouse secondary antibodies (Cell Signalling). Images were acquired using Li-Cor Odyssey Fc Imaging System and densitometric quantification of unsaturated images was performed using ImageJ software (NIH). Uncropped and unprocessed western blot scans are provided as Fig. S1. The following primary antibodies were used: LC3 (Novus Cat. No. NB100-2220, 1:1000 in 5% milk), TFEB (Cell Signaling Cat. No. 4240, 1:1000 in 5% BSA) and β-actin (Santa Cruz Cat. No. Sc-47778, 1: 1000 in 5% BSA).

T3 sequence (Q9GZU1 whole entry): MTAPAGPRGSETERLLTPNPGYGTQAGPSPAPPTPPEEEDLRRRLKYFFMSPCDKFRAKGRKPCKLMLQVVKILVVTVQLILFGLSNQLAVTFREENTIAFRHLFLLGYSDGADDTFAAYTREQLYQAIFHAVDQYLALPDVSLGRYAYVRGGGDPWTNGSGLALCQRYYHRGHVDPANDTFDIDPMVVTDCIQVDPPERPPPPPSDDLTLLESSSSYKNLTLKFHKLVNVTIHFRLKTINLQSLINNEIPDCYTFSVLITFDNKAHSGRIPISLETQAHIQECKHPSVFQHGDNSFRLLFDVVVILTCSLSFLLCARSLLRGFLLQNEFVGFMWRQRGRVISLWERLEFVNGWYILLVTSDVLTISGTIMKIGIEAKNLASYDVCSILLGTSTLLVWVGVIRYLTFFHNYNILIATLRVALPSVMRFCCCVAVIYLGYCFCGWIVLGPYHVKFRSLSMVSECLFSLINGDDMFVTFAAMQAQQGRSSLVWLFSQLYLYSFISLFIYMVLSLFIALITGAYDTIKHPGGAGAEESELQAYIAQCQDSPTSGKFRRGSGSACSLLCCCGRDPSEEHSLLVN
T1 sequence (Q9GZU1 with tags, fused parts or gaps L15A/L16A): as the sequence (Q9GZU1 whole entry) above, with L15A, L16A, L577A, L578A counted along it

SMILES: COc1ccc2c(c1)CC[C@@H]1[C@@H]2CC[C@]2(C)[C@@H](O)CC[C@@H]12 [EDME, 17β-estradiol methyl ether]
- IC50 [1]: 0.22 µM
- block of TRPML3, whole-cell patch-clamp (hTRPML3): no block
- inhibition of WT hTRPML1 current, endolysosomal patch-clamp (hTRPML1 WT): inhibitory effect
- TFEB molecular downshift induced by nutrient starvation (TFEB): reduced
